The source of these data is patent US20220125839A1, “COMBINATION OF T-CELL THERAPY AND TARGETED THERAPY FOR TREATING THERAPY-RESISTANT MELANOMA WITH MUTATIONS IN THE BRAF GENE” (H. LEE MOFFITT CANCER CENTER AND RESEARCH INSTITUTE, INC., priority 2019, published 2022).

In experiment [1] the test system is M6PR. Description: IHC staining of M6PR in WM35 tumors in NOD/SCID mice. The experiment is classed as in vivo. Particulars: for tumor M6PR levels by immunohistochemistry: 50 mg/kg oral gavage. As to the method:
In order to establish xenograft models, cultured WM35, WM35-BR, WM983B-BR-pAHygCMV2 and WM983B-BR-M6PR/IGF2R cells were harvested, suspended in sterile PBS, mixed in 2:1 ratio with Matrigel and injected subcutaneously into the left flank of mice (1-3×10^6 cells per mouse). PLX4720 was administered daily at dose 50 mg/kg for 10 days via oral gavage. As a control, mice treated with vehicle alone (2% DMSO, 50% PEG 300, 5% Tween 80) were used. Treatments were started when tumors were 0.5-0.8 cm in diameter.
Tumor tissues were harvested, fixed overnight with 4% paraformaldehyde (Electron Microscopy Science; Cat. no. 15710) at 4° C., embedded in paraffin blocks and 4-5 μm thick sections of the tissue were prepared and stained with polyclonal goat M6PR/IGF2R primary antibody (R&D Systems; Cat. no. AF2447; 5 μg/mL per samples) O/N at 4° C. Biotinylated 2nd antibody in 1:200 dilution was used for 30 min at RT followed by application of ABC solution ([…] and biotinylated horseradish peroxidase) for 30 min at RT. DAB 0.05% solution was applied for 3-4 min at RT. Hematoxylin was used for counterstaining the nucleus. Images were analyzed using Nis-Elements Ar (Advanced Research) Nikon 80i Upright Microscope with 40×N.A. objective. Each slide was scanned, images were manually captured at separate X, Y locations and a multipoint ND document was created point by point. A threshold value was defined for each image (for brown M6PR staining) using the single point selection tool. Results were exported to Excel for further analysis. (Acquisition Software: Nikon NIS-Elements Br (Basic research) 4.0, Camera Name: DS-Ri1-U3 40× Objective, Numerical Aperture: 0.95, Camera Settings: Format: 1280×1024 Fine, Exposure: ME 80 ms (−+0.0 EV))
Since hypoxia is an important component of the tumor microenvironment, we evaluated the effect of hypoxia on PLX4720-induced M6PR up-regulation. WM983B melanoma cells were exposed to 0.5% 02 during PLX4720 treatment. […] To understand the effect of PLX4720 on M6PR expression in vivo, WM35 tumor cells were injected s.c. into immune deficient NOD/SCID mice. When tumors reached 0.5-0.8 cm in diameter, mice were treated with vehicle or 50 mg/kg PLX4720 by oral gavage for 3 or 5 consecutive days.

For experiment [2], the system named is M6PR. Description: Cell surface M6PR expression by flow cytometry in PLX4720-resistant WM983B-BR cells. The experiment is classed as cell-based, human.
Experimental: WM35 human melanoma and HLA-matched human tumor infiltrating lymphocytes (TIL) were generated at H. Lee Moffitt Cancer Center and Research Institute, Tampa, Fla., USA). Human melanoma cells lines WM983B and WM983B-BR were maintained in Dulbecco's Modified Eagles medium (DMEM) (Gibco), other human melanoma cell lines were maintained in RPMI medium supplemented with 10% fetal bovine serum (FBS, Sigma-Aldrich, St. Louis, Mo.) and 1% Pen/Strep (Corning; Cat. no. 30-002-Cl) at 37° C., 5% CO2. PLX4720-resistant cells were kept in cell culture media supplemented with 1 μM PLX4720 to keep these cells resistant against the drug. 350 μg/mL Hygromycin B (Invitrogen; Cat. no. 10687010) was kept in the culture media of WM983B-BR-pAHygCMV2, WM983B-BR-M6PR/IGF2R, WM35-pAHygCMV2, WM35-M6PR/IGF2R cells after transfection. Tumor cell lines were tested for mycoplasma contamination by using Universal Mycoplasma detection kit (ATCC) regularly. Human melanoma cells were treated with 1-10 μM PLX4720 (Selleckchem; Cat. no. S1152), 25-100 nmol/mL (nM) Trametinib (Selleckchem; Cat. no. S2673). Hypoxia (0.5% 02) was maintained using hypoxic chamber (BioSpherix).
M6PR expression levels were detected by flow cytometry. […] Cells were fixed using 1% paraformaldehyde for 20 minutes at 4° C. before running them on LSR14. Data was analyzed by FlowJo software (Tree Star).
To maintain consistency with the results obtained on sensitive cell lines and to better assess the effect of BRAFi on the sensitivity of tumor cells to CTLs, we generated an additional BRAFi resistant cell line WM35-BR by exposing WM35 cells to increased concentrations of PLX4720. Resistant cell lines (WM983B-BR and WM35-BR) were treated with 1 μM or 10 μM PLX4720 for different times, and cell surface M6PR levels were determined by flow cytometry.
For experiment [3], the system named is M6PR. The experiment in a line: IHC staining of M6PR in WM35-BR tumors in NOD/SCID mice. The experiment is classed as in vivo.
Experimental: Tumor tissues were harvested, fixed overnight with 4% paraformaldehyde (Electron Microscopy Science; Cat. no. 15710) at 4° C., embedded in paraffin blocks and 4-5 μm thick sections of the tissue were prepared and stained with polyclonal goat M6PR/IGF2R primary antibody (R&D Systems; Cat. no. AF2447; 5 μg/mL per samples) O/N at 4° C. Biotinylated 2nd antibody in 1:200 dilution was used for 30 min at RT followed by application of ABC solution (avidin dehydroxygenase and biotinylated horseradish peroxidase) for 30 min at RT. DAB 0.05% solution was applied for 3-4 min at RT. Hematoxylin was used for counterstaining the nucleus. Images were analyzed using Nis-Elements Ar (Advanced Research) Nikon 80i Upright Microscope with 40×N.A. objective. Each slide was scanned, images were manually captured at separate X, Y locations and a multipoint ND document was created point by point. A threshold value was defined for each image (for brown M6PR staining) using the single point selection tool. […]
WM35-BR tumor cells were injected subcutaneously to the flank of NOD/SCID mice and once the average tumor area reached around 40-50 mm2 in size, mice were treated with vehicle or 50 mg/kg PLX4720 by oral gavage for 5 days. After 5 days of PLX4720 treatment, tumors were harvested at different time points and M6PR expression in tumor tissues was detected by IHC staining.
In another experiment the test system is WM35 cells. Description: Granzyme B (GrzB) uptake by WM35 cells. Type of experiment: cell-based, human. Particulars: overnight PLX4720, then inactive GrzB for an hour.
In the next experiment the test system is WM983B-M6PR-KO cells. Description: Granzyme B (GrzB) uptake by WM983B-M6PR-KO cells. The experiment is classed as cell-based, human. Particulars: WM983B-M6PR-KO (absence of M6PR); overnight, then inactive GrzB 1 hour. Here is the method:
Cells were then stained with Aqua dead cell staining kit (Thermo Fischer Scientific) for 15 min at 4° C. fixed in fixation buffer (BD Cytofix/Cytoperm; Cat. no. 51-2090). Granzyme B antibody (Cat. no. 561142) or its isotype control (BD Bioscience; Cat. no. 555749) were used. Stained cells were run on LSR14. Data was analyzed by FlowJo software (Tree Star).
To investigate if M6PR has a direct role in the increased uptake of GrzB induced by PLX4720, we generated a WM983B-M6PR-KO cell line lacking M6PR expression, using Crispr/Cas9 technology. Deletion of M6PR was confirmed by western blotting (FIG. 8A) and flow cytometry (FIG. 8B). WM983B and WM983B-M6PR-KO cells were cultured with DMSO or different concentrations of PLX4720. […] To test the sensitivity of WM983B cells to CTLs, we expanded TILs isolated from a HLA-A1+ patient with metastatic melanoma. These TILs recognized HLA-A1+WM983B cells. As targets, we used WM983B and WM983B-M6PR-KO cells. […] BRAFi sensitive and resistant WM983B cells were recognized by CTLs equally well (FIG. 8E). […] Herein was asked whether manipulation with expression of M6PR could affect expression of molecules associated with antigen presentation and regulation of immune responses by tumor cells. We evaluated expression of MHC class I, MHC class II, PDL1, and FasL on tumor cells with overexpression or deletion of M6PR.

The subject of a further experiment is WM35-BR cells. Description: Granzyme B (GrzB) uptake by WM35-BR cells. Particulars: 10 μM overnight, then inactive GrzB one hour. The experiment is classed as cell-based, human.
Experiment [4] relates to M6PR. Description: M6PR staining in patient derived xenografts (PDX). Particulars: PDX from four patients (4237, 3929, 4070, 4298); treated for 3 weeks. Type of experiment: in vivo, mice. As to the method: FIGS. 11A, 11B, and 11 C show M6PR expression in patients treated with vemurafenib plus ACT with TIL. […] Mice with PDX were left untreated for 4 weeks (untreated), or treated for 3 weeks with corresponding single agent BRAFi (PLX-PLX4720) or combination with MEKi (CPLX-PLX4720 and PD0325901). Tissues were stained for M6PR and intensity of staining was assessed in 8 fields. Typical example of staining (scale bar=25 μm) and statistical analysis are shown. Intensity was normalized to untreated samples. Mean and SD for 8 fields are shown. P values were calculated in unpaired Student's t-test. […] H-score results are shown. P value is shown in paired twotailed Student's t test.
To test the effect of therapy on M6PR expression in clinical samples, we established patient derived xenografts (PDX) from four patients who were either treatment naïve (4237, 3929), or progressed on BRAFi (4070) or combination of BRAFi and MEKi (4298). Mice with PDX were left untreated or treated for 3 weeks with single agent BRAFi (PLX-PLX4720) or combination with MEKi (CPLXPLX4720 and PD0325901).
In general terms: Xenograft models place foreign cells or tissue in a host animal.

In experiment [5] the test system is BRAFV600E mouse melanoma transplants. Particulars: in vivo; cited from earlier work.

With `CCCS(=O)(=O)Nc1ccc(F)c(C(=O)c2c[nH]c3ncc(Cl)cc23)c1F` [PLX4720], the figures for the “tumor M6PR levels by immunohistochemistry” value in the experiment with M6PR [1] (3 days after start of the treatment) and in the experiment with M6PR [1] (5 days after start (2 days later)) were “significant increase in tumor M6PR levels” and “further increased”, respectively. Moreover, the “tumor M6PR expression after finish of the treatment” value in the experiment on M6PR [1] (3 days after finish of the treatment) is “remained high”; in the experiment with M6PR [1] (day 6 after finish) it was “slight decrease”; in the experiment with M6PR [1] (day 9 after finishing the treatment), “returned to the pretreatment level”. Besides, in the experiment on M6PR [2] (BRAF resistant cells (WM983B-BR), hypoxia), the “M6PR expression under hypoxia” value is given as “increased M6PR expression”. In addition, the “M6PR on the cell surface” value in the experiment on M6PR [2] (WM983B-BR, 1 μM or 10 μM PLX4720) is listed as “further substantial up-regulation of MP6R on the cell surface”. In addition, the “M6PR levels after 24 hours of treatment” value in the experiment with M6PR [2] (WM983B-BR, 24 hours) was “did not decrease to pre-treatment levels”. In addition, the “M6PR in tumor tissues by IHC” value in the experiment on M6PR [3] (50 mg/kg oral gavage for 5 days) was “marked up-regulation of M6PR in tumor tissues, which was lower than that observed in sensitive cell lines”. Besides, the “M6PR expression after treatment was stopped” value with M6PR [3] (compared with sensitive lines) is reported as “decreased more rapidly after treatment was stopped”. The “GrzB uptake by tumor cells” value with WM35 cells is reported as “significant up-regulation of GrzB uptake”. Besides, in the experiment on WM983B-M6PR-KO cells, the “PLX4720-inducible GrzB uptake” value is “up-regulation of GrzB uptake was abrogated”. In the experiment on WM35-BR cells, the “intracellular GrzB levels” value is given as “significantly higher amount of GrzB than DMSO treated cells”. Also, in the experiment on M6PR [4], the “M6PR in tumors (PDX)” value is recorded as “marked up-regulation of M6PR in tumors”. In experiment [5], the “CD8+T/FoxP3+CD4+ T cell ratio and NK cells” value is “robust increase in the CD8+T/FoxP3+CD4+ T cell ratio and in NK cells”. Besides, the “tumor CCL2 expression” value in experiment [5] was “decreased tumor CCL2 expression”. Besides, in experiment [5], the tumor immunogenicity entry is listed as “did not directly increase tumor immunogenicity”.
